Measured values taken from patent US9980931B2, “Use of glycyl glutamine against depression” (priority 2013, dated 2018).
Like-named read-outs stand apart in the source and are kept apart here. Peptide text beside a SMILES is read from it.

Experiments:
[1] = system: serotonin output at the nucleus accumbency section of the brain; experiment: Brain micro-dialysis, serotonin output after intracerebroventricular injection; assay type: in vivo, rats; conditions: 100 nmol single intracerebroventricular dose; 2 hours monitoring; p<0.001; FIGS. 4 and 5
Procedure: The source of the antidepressant effects of Gly-Gln, which is mentioned in the figure descriptions above, have been analyzed and shown in FIGS. 4 and 5. In FIGS. 4 and 5; the effect of Gly-Gin on the serotonin output at the nucleus accumbency section of the brain upon intracerebroventricular Gly-Gln injection can be seen. […] An increase in serotonin outputs can be observed in all time intervals throughout 2 hours of monitoring period following the Gly-Gln injection; however, no serotonin output could be observed from the rodents in the control group who had been administered saline injections by the same way. Serotonin, which is structurally a monoamine neurotransmitter, is a hormone, which makes people feel happy, energetic and lively. When, the subject matter hormone serotonin is deficient in people, they feel depressive, tired and boring. […] Furthermore, the word “Saline” indicated in FIGS. 4 and 5 means salty water. It is used for comparing with the tested medication by administering on the control group.

GABA levels in the brain [2] = experiment: GABA levels in the brain after administration; assay type: in vivo; conditions: Gly-Gln administration; data from our laboratory
Excerpt: This innovation is related with the use of glycyl-glutamine in the treatment and/or prophylaxis of depression disorder and/or anxiety, which meets all above-mentioned requirements, eliminates all disadvantages and provides some advantages. The purpose of the current invention is to use Glycyl-Glutamine (Gly-Gln) in the treatment and/or prophylaxis of depression and/or anxiety via its effects in the brain other than its metabolic products' (glycine and glutamine) separate effects. […] Glutamine exerts antidepressant effects by increasing gamma-aminobutyric acid (GABA) in the brain however Gly-Gln generates antidepressant effects by increasing serotonin levels in the brain. […] Although glutamine administration increases GABA levels in the brain.

[3] = administered peripherally; cited from earlier work
brainstem of rodents = conditions: applied on the brainstem of rodents iontophoretically (Parish et al., 1983); cited from earlier work
[4] = system: thermogenesis caused by alpha-MSH; conditions: Resch and Millington, 1993; cited from earlier work
[5] = system: cardiorespiratory depression; conditions: Unal et al., 1997; cited from earlier work
use of alcohol = conditions: administered centrally (Resch et al., 2005; Simpson et al., 1998); cited from earlier work
[6] = system: conditioned place preference caused by morphine; conditions: Cavun et al., 2005; cited from earlier work
[7] = system: conditioned place preference (nicotine); conditions: Goktalay et al., 2006; cited from earlier work
myocardial damage = conditions: Zhang et al., 2013; cited from earlier work
GABA levels in the brain [8] = conditions: glutamine administration; cited from earlier work

## NCC(=O)N[C@@H](CCC(N)=O)C(=O)O [Gly-Gln, glycyl-glutamine] (H-Gly-Gln-OH)
[1]
  serotonin output at the nucleus accumbency section of the brain: extremely increased
GABA levels in the brain [2]
  GABA levels in the brain: does not alter
[3]
  crossing of the blood-brain barrier: could not across
Brainstem of rodents
  effect on cell ignition: inhibiting effect
[4]
  thermogenesis caused by alpha-MSH: antagonized
[5]
  cardiorespiratory depression caused by beta-endorphin: eliminated
  cardiorespiratory depression caused by beta-endorphin and morphine: eliminated
Use of alcohol
  use of alcohol: decreased
[6]
  addition and tolerance developments (morphine): inhibited
  conditioned place preference caused by morphine: prevented
  deprivation symptoms (morphine): decreased
[7]
  conditioned place preference and deprivation syndrome (nicotine): prevented
Myocardial damage
  effects on myocardial damage after severe burn injury: beneficial effects

## beta-endorphin (YGGFMTSEKSQTPLVTLFKNAIIKNAYKKGE; Beta-endorphin; UniProt P01189 237-267, looked up) [endogenous peptide from which Gly-Gln is produced, reference compound]
Use of alcohol
  use of alcohol: increased

## NC(=O)CC[C@H](N)C(=O)O [glutamine]
GABA levels in the brain [8]
  GABA levels in the brain: increases

## NC(=O)CC[C@@H]1NC(=O)CNC1=O [cyclo Gly-Gln]
[3]
  crossing of the blood-brain barrier: could be across
[5]
  cardiorespiratory depression caused by beta-endorphin and morphine: eliminated
